Results as given in patent US20250380697A1, “ISOXAZOLINE DERIVATIVE COMPOUND AND INSECTICIDAL COMPOSITION COMPRISING SAME” (KYUNG NONG CORPORATION, priority 2022, published 2025).
Read-outs that look alike come from different tables or passages of the source.

Legend:
Type in all cases: in vivo
[1] = test system: Frankliniella occidentalis; assay: Pesticidal activity against Frankliniella occidentalis, spray method; details: read-out: mortality rate against Frankliniella occidentalis
Text: A water-soaked filter paper (9.0 cm in diameter) was placed in an insect breeding dish (Lab Guide®) with a diameter of 9.0 cm and a height of 4.0 cm, and then parafilm (width 4.0 cm×height 4.0 cm) was placed thereon. Before treating with a pesticide composition, 10 adult Frankliniella occidentalis were inoculated per petri dish using a No. 4 brush. In this case, Frankliniella occidentalis adults used were those purchased from the Bio Utilization Institute (Andong, Korea). Then, each of the pesticide compositions prepared in Examples (a diluted solution in which each of the compounds of Synthesis Examples (concentration: 100 ppm) was diluted; the solvent=distilled water+acetone 50,000 mg/L+Triton X-100 100 mg/L) was loaded into a 100 mL small sprayer, and sprayed 10-12 times at a distance of 30 cm and a height of 50 cm, and one cotyledons of soybean, which is a host plant, were added one at a time. Then, the Frankliniella occidentalis adults were stored under the conditions of 16 hours of light and 8 hours of darkness, 25±1° C., and relative humidity of 50-60%, and the number of live Frankliniella occidentalis adults was counted 48 hours after the inoculation. Thereafter, the larvae mortality rate was calculated in the same manner as in Test Example 1 above.

Spodoptera litura = assay: Pesticidal activity against Spodoptera litura, leaf-dipping method; details: read-out: mortality rate against Spodoptera litura
Procedure: Cabbage (Daiya) leaves were cut into pieces with a diameter of 5.8 cm, dipped in each of the pesticide compositions prepared in Examples (a 5% acetone solution in which each of the compounds of Synthesis Examples (concentration: 100 ppm) was diluted) for 30 seconds, and sufficiently shade-dried. Then, the shade-dried cabbage leaves were placed in a petri dish (8.8 cm in diameter) covered with a filter paper and repeatedly inoculated 3 times with the second instar larvae of Spodoptera litura, 10 larvae per inoculation. In this case, Spodoptera litura larvae used were those which were purchased from the Bio Utilization Institute (Andong, Korea). Then, the Spodoptera litura larvae were stored under the conditions of 16 hours of light and 8 hours of dark, 25±1° C., and relative humidity of 50-60%, and the number of live Spodoptera litura larvae was counted 48 hours after the inoculation. Thereafter, the larvae mortality rate was calculated in the same manner as in Test Example 1 above.

Plutella xylostella = assay: Pesticidal activity against Plutella xylostella, leaf-dipping method; details: read-out: larvae mortality rate against Plutella xylostella
Procedure: Cabbage (Daiya) leaves were cut into pieces with a diameter of 5.8 cm, dipped in each of the pesticide compositions prepared in Examples (a 5% acetone solution in which each of the compounds of Synthesis Examples (concentration: 100 ppm) was diluted) for 30 seconds, and sufficiently shade-dried. Then, the shade-dried cabbage leaves were placed in a petri dish (8.8 cm in diameter) covered with a filter paper and repeatedly inoculated 3 times with third instar larvae of Plutella xylostella, 10 larvae per inoculation. In particular, Plutella xylostella larvae used were those which were collected in a place near Gyeongju (Korea) in 2000 and bred in a breeding room for multiple generations. Then, the Plutella xylostella larvae were stored under the conditions of 16 hours of light and 8 hours of dark, 25±1° C., and relative humidity of 50-60%, and the number of live Plutella xylostella larvae was counted 48 hours after the inoculation. Thereafter, the larvae mortality rate was calculated by correcting the density after treatment based on the density before treatment, as shown in Equation 1 and Equation 2 below, and converting the same into the corrected mortality rate for untreated (Reference: A method of computing the effectiveness of an insecticide. J. Econ. Entomol. 18:265˜267. Abbott, 1925).

Measured: mortality at 100 ppm

Cc1cc(C2=NOC(c3cc(Cl)cc(Cl)c3)(C(F)(F)F)C2)ccc1C(=O)NC(=O)C1(C)CC1(F)F (stereo not drawn) [Synthesis Example 30]
≥ 80%: [1]; 48 h | Spodoptera litura; 48 h | Plutella xylostella; 48 h

Cc1cc(C2=NOC(c3cc(C(F)(F)F)cc(C(F)(F)F)c3)(C(F)(F)F)C2)ccc1C(=O)NC(=O)C1CC1 (stereo not drawn) [Synthesis Example 5]
≥ 80%: [1]; 48 h | Spodoptera litura; 48 h | Plutella xylostella; 48 h

Cc1cc(C2=NOC(c3cc(Cl)cc(Cl)c3)(C(F)(F)F)C2)ccc1C(=O)NC(=O)C1CCC1 (stereo not drawn) [Synthesis Example 32]
≥ 80%: [1]; 48 h | Spodoptera litura; 48 h | Plutella xylostella; 48 h

Cc1cc(C2=NOC(c3cc(Cl)cc(C(F)(F)F)c3)(C(F)(F)F)C2)ccc1C(=O)NC(=O)C1(C#N)CC1 (stereo not drawn) [Synthesis Example 27]
≥ 80%: [1]; 48 h | Spodoptera litura; 48 h | Plutella xylostella; 48 h

Cc1cc(C2=NOC(c3cc(Cl)cc(C(F)(F)F)c3)(C(F)(F)F)C2)ccc1C(=O)N(C)C(=O)C1CC1 (stereo not drawn) [Synthesis Example 11]
≥ 80%: [1]; 48 h | Spodoptera litura; 48 h | Plutella xylostella; 48 h

CN(C(=O)c1ccc(C2=NOC(c3cc(Cl)cc(Cl)c3)(C(F)(F)F)C2)c2ccccc12)C(=O)C1CC1 (stereo not drawn) [Synthesis Example 14]
≥ 80%: [1]; 48 h | Spodoptera litura; 48 h | Plutella xylostella; 48 h

Cc1cc(C2=NOC(c3cc(Cl)cc(Cl)c3)(C(F)(F)F)C2)ccc1C(=O)NC(=O)C1CC1(F)F (stereo not drawn) [Synthesis Example 50]
≥ 80%: [1]; 48 h | Spodoptera litura; 48 h | Plutella xylostella; 48 h

O=C(NC(=O)C1CC1)c1ccc(C2=NOC(c3cc(Cl)cc(C(F)(F)F)c3)(C(F)(F)F)C2)c2ccccc12 (stereo not drawn) [Synthesis Example 6]
≥ 80%: [1]; 48 h | Spodoptera litura; 48 h | Plutella xylostella; 48 h

Cc1cc(C2=NOC(c3cc(Cl)cc(C(F)(F)F)c3)(C(F)(F)F)C2)ccc1C(=O)NC(=O)C1(C)CC1(F)F (stereo not drawn) [Synthesis Example 31]
≥ 80%: [1]; 48 h | Spodoptera litura; 48 h | Plutella xylostella; 48 h

Cc1cc(C2=NOC(c3cc(Cl)cc(Cl)c3)(C(F)(F)F)C2)ccc1C(=O)NC(=O)C1CC12CCC2 (stereo not drawn) [Synthesis Example 52]
≥ 80%: [1]; 48 h | Spodoptera litura; 48 h | Plutella xylostella; 48 h

Cc1cc(C2=NOC(c3cccc(C#N)c3)(C(F)(F)F)C2)ccc1C(=O)NC(=O)C1CC1 (stereo not drawn) [Synthesis Example 4]
≥ 80%: [1]; 100 ppm, spray, adults, 48 hours after inoculation | Spodoptera litura; 100 ppm, leaf-dipping, second instar larvae, 48 hours after inoculation | Plutella xylostella; 100 ppm, leaf-dipping, third instar larvae, 48 hours after inoculation

Cc1cc(C2=NOC(c3cc(Cl)cc(Cl)c3)(C(F)(F)F)C2)ccc1C(=O)NC(=O)c1cn(C)nc1C(F)F (stereo not drawn) [Synthesis Example 45]
≥ 80%: [1]; 48 h | Spodoptera litura; 48 h | Plutella xylostella; 48 h

Cc1cc(C2=NOC(c3cc(Cl)cc(C(F)(F)F)c3)(C(F)(F)F)C2)ccc1C(=O)NC(=O)c1ccno1 (stereo not drawn) [Synthesis Example 83]
≥ 80%: [1]; 48 h | Spodoptera litura; 48 h | Plutella xylostella; 48 h

Cc1cc(C2=NOC(c3cc(Cl)cc(C(F)(F)F)c3)(C(F)(F)F)C2)ccc1C(=O)NC(=O)c1ccc(C#N)cc1 (stereo not drawn) [Synthesis Example 76]
≥ 80%: [1]; 48 h | Spodoptera litura; 48 h | Plutella xylostella; 48 h

C/C=C/C(=O)NC(=O)c1ccc(C2=NOC(c3cc(Cl)cc(C(F)(F)F)c3)(C(F)(F)F)C2)cc1C (stereo not drawn) [Synthesis Example 71]
≥ 80%: [1]; 48 h | Spodoptera litura; 48 h | Plutella xylostella; 48 h

Cc1cc(C2=NOC(c3cc(Cl)cc(Cl)c3)(C(F)(F)F)C2)ccc1C(=O)NC(=O)c1ccccc1 (stereo not drawn) [Synthesis Example 37]
≥ 80%: [1]; 48 h | Spodoptera litura; 48 h | Plutella xylostella; 48 h

Cc1cc(C2=NOC(c3cc(Cl)cc(C(F)(F)F)c3)(C(F)(F)F)C2)ccc1C(=O)NC(=O)C1CCCO1 (stereo not drawn) [Synthesis Example 85]
≥ 80%: [1]; 48 h | Spodoptera litura; 48 h | Plutella xylostella; 48 h

O=C(c1ccc(C2=NOC(c3cc(Cl)cc(C(F)(F)F)c3)(C(F)(F)F)C2)c2ccccc12)N(CCF)C(=O)C1CC1 (stereo not drawn) [Synthesis Example 17]
≥ 80%: [1]; 48 h | Spodoptera litura; 48 h | Plutella xylostella; 48 h

Cc1cc(C2=NOC(c3cc(Cl)cc(C(F)(F)F)c3)(C(F)(F)F)C2)ccc1C(=O)N(CC1CC1)C(=O)C1CC1 (stereo not drawn) [Synthesis Example 21]
≥ 80%: [1]; 48 h | Spodoptera litura; 48 h | Plutella xylostella; 48 h

Cc1cc(C2=NOC(c3cc(Cl)cc(Cl)c3)(C(F)(F)F)C2)ccc1C(=O)NC(=O)N1CCCCC1 (stereo not drawn) [Synthesis Example 66]
≥ 80%: [1]; 48 h | Spodoptera litura; 48 h | Plutella xylostella; 48 h

Cc1cc(C2=NOC(c3cc(Cl)cc(C(F)(F)F)c3)(C(F)(F)F)C2)ccc1C(=O)NC(=O)C1CCOCC1 (stereo not drawn) [Synthesis Example 65]
≥ 80%: [1]; 48 h | Spodoptera litura; 48 h | Plutella xylostella; 48 h

Cc1cc(C2=NOC(c3cc(Cl)cc(C(F)(F)F)c3)(C(F)(F)F)C2)ccc1C(=O)NC(=O)C1(C(F)(F)F)CC1 (stereo not drawn) [Synthesis Example 29]
≥ 80%: [1]; 48 h | Spodoptera litura; 48 h | Plutella xylostella; 48 h

Cc1cc(C2=NOC(c3cc(Cl)cc(C(F)(F)F)c3)(C(F)(F)F)C2)ccc1C(=O)NC(=O)C1(C)CC1 (stereo not drawn) [Synthesis Example 25]
≥ 80%: [1]; 48 h | Spodoptera litura; 48 h | Plutella xylostella; 48 h

Cc1cc(C2=NOC(c3cc(Cl)cc(C(F)(F)F)c3)(C(F)(F)F)C2)ccc1C(=O)N(C(=O)C1CC1)C(=O)C1CC1 (stereo not drawn) [Synthesis Example 22]
≥ 80%: [1]; 48 h | Spodoptera litura; 48 h | Plutella xylostella; 48 h

Cc1cc(C2=NOC(c3cc(Cl)cc(Cl)c3)(C(F)(F)F)C2)ccc1C(=O)NC(=O)C1CCCCC1 (stereo not drawn) [Synthesis Example 39]
≥ 80%: [1]; 48 h | Spodoptera litura; 48 h | Plutella xylostella; 48 h

Cc1cc(C2=NOC(c3cc(Cl)cc(C(F)(F)F)c3)(C(F)(F)F)C2)ccc1C(=O)N(CC(F)(F)F)C(=O)C1CC1 (stereo not drawn) [Synthesis Example 20]
≥ 80%: [1]; 48 h | Spodoptera litura; 48 h | Plutella xylostella; 48 h

CN(C(=O)c1ccc(C2=NOC(c3cc(Cl)cc(C(F)(F)F)c3)(C(F)(F)F)C2)c2ccccc12)C(=O)C1CC1 (stereo not drawn) [Synthesis Example 12]
≥ 80%: [1]; 48 h | Spodoptera litura; 48 h | Plutella xylostella; 48 h

Cc1cc(C2=NOC(c3cc(Cl)cc(Cl)c3)(C(F)(F)F)C2)ccc1C(=O)NC(=O)C1(C#N)CC1 (stereo not drawn) [Synthesis Example 26]
≥ 80%: [1]; 48 h | Spodoptera litura; 48 h | Plutella xylostella; 48 h
